The subject of experiment [1] is Aphis gossypii. The experiment is described as follows: Use Example A: field plots of cotton sprayed against Aphis gossypii. To be noted: cotton FM966LL field plots, I-4 44 g of a.i./ha, Dyne-amic 0.455 % (v/v), UAN 0.7 % (v/v) where added. Type of experiment: in vivo. The protocol: In three replications, plots of a size of about 66 m^2 with cotton of the cultivar FM966LL are treated against Aphis gossypii. Here, the active compound I-4 (as 1500D formulation) is applied with a sprayer (High Clearance Sprayer, High Boy) at the stated application rates. The amount of water applied is about 150 l/ha. An adjuvant and/or a fertilizer (UAN=ammonium nitrate/urea solution with 28% by weight of nitrogen) are added to the spray liquor at the stated concentration. Here, it becomes evident that the composition according to the invention is equivalent to a composition comprising an adjuvant known to be efficient.

Experiment [2] concerns cotton aphids (Aphis gossypii). The experiment is described as follows: Example B-1: spray treatment of cotton plants heavily infested by cotton aphids. Type of experiment: in vivo. Conditions: AHL or NH4NO3 12.5 g/l, RME 1 g ai/l where added. How it is done:
To prepare a suitable product solution, 1 part by weight of formulated goods (for example an oil suspension OD 150 prepared according to known methods) is mixed with water to give the desired concentration. The desired fertilizer or penetrant is added in a defined amount and mixed in well.
Cotton plants (Gossypium herbaceum) which are heavily infested by the cotton aphids (Aphis gossypii) are treated by spraying with the product solution at the desired concentration.
After the desired period of time, the kill in % is determined. Here, 100% means that all aphids have been killed; 0% means that none of the aphids have been killed.

`CCOC(=O)OC1=C(c2cc(C)ccc2C)C(=O)N[C@]12CC[C@@H](OC)CC2` [Compound I-4]: the “Effect (% Abbott) After 2 days” value in experiment [1] (after 2 days) came to 66.7 % Abbott. The “Effect (% Abbott) After 5 days” value in experiment [1] (after 5 days) is 65.8 % Abbott. In addition, the “Effect (% Abbott) After 9 days” value in experiment [1] (after 9 days) came to 13.9 % Abbott. For the same compound, the “Kill in % after 7d” value in experiment [2] (I-4 0.96 g ai/ha) came to 25%; in experiment [2] (I-4 4.8 g ai/ha) it was 90%.

(Values after patent US20100234221A1, “USE OF TETRAMIC ACID DERIVATIVES WITH FERTILIZERS” (BAYER CROPSCIENCE AG, priority 2006, published 2010).)
